According to patent US7488466B2, “Preparation for determining pyrimidine metabolic capacity” (Otsuka Pharmaceutical Co., Ltd., priority 2002, dated 2009):

Experiments:
[1] = Dose dependence of 13CO2 concentration in expired air after oral 2-13C-labeled uracil (Example 3); assay type: in vivo, beagle dogs; settings: dose of 10 to 80 μmol/kg body weight, FIGS. 5 and 6
Description: In 50 ml portions of 0.05N sodium hydroxide, 56.5 mg, 113.1 mg, 226.2 mg, and 452.3 mg of 2-^13C-labeled uracil (Cambridge Isotope Laboratory) were dissolved separately, to prepare solutions with concentrations of 10 μmol/ml, 20 μmol/ml, 40 μmol/ml, and 80 μmol/ml, respectively. The solutions were forcibly administered orally to fasted male beagle dogs (n=3) using oral tubes for dogs, in an amount of 1 ml/kg body weight (dose: […]), and thereafter water was forcibly administered orally in an amount of 2 ml/kg body weight. The expired air was collected before administration, and after 15, 30, 45, 60, 75, 90, 105, 120, 135, 150, 180, 210, and 240 minutes after administration. Then, the ^13C-labeled carbon dioxide concentration in the expired air was measured, and pharmacokinetic parameters (the area under the curve (AUC) and maximum ^13C-labled carbon dioxide concentration (Cmax)) were calculated from the obtained transition curve of the ^13C-labeled carbon dioxide concentration in the expired air.

[2] = target: T1, dihydropyrimidine dehydrogenase (DPD) (Canis lupus familiaris, UniProt A0A8I3P1X8); assay: 13CO2 excretion in expired air after intravenous injection of 2-13C-labeled uracil preparation (Example 1); assay type: in vivo; settings: FIG. 2
T1 construct: Fasted beagle dogs were used as experimental animals; from tissue; host or cells: whole living beagle dogs (in vivo)
T1 sequence (A0A8I3P1X8 1-1026): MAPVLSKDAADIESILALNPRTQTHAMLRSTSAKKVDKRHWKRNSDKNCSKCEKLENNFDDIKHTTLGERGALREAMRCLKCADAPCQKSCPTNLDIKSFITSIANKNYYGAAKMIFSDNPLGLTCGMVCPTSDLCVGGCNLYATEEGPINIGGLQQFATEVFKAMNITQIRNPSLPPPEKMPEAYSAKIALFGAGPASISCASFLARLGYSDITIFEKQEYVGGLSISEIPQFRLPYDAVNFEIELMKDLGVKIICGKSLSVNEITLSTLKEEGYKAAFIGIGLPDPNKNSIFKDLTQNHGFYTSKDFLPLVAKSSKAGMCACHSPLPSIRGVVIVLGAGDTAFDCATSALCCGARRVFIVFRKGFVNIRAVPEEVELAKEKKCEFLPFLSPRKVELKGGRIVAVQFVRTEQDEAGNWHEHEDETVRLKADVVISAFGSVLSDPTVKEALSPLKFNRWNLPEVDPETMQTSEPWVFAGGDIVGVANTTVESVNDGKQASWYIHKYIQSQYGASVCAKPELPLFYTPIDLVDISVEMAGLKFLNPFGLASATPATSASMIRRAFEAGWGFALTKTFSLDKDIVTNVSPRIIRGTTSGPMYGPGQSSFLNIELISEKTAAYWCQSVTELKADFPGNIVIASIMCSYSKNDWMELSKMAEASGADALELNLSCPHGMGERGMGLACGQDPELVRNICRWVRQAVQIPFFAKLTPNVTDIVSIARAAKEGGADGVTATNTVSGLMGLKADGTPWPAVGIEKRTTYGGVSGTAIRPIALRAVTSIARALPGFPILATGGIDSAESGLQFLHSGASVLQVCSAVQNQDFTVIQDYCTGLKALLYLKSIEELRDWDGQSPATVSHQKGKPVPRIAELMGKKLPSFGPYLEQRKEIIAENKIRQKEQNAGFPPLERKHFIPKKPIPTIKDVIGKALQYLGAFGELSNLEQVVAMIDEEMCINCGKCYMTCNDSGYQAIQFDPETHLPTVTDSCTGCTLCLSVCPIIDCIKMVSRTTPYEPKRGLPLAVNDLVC
Description: Uracil having […] carbon at the 2-position (2-^13C-labeled uracil) was used as an isotope-labeled pyrimidine compound. A preparation for determining the pyrimidine metabolic capacity in the form of an intravenous injection comprising the 2-^13C-labeled uracil as an active ingredient was prepared and tested for usefulness for determining pyrimidine metabolic capacity.
Uracil-2-^13C (Cambridge Isotope Laboratory) (300 mg) was dissolved in 24 ml of 0.1N NaOH/saline solution (measured out from 200 ml of 0.1N NaOH/saline solution prepared by diluting 2 ml of 10N sodium hydroxide solution with physiological saline), to give a preparation for determining the pyrimidine metabolic capacity in the form of an intravenous injection (containing 50 mg of uracil-2-^13C per 4 ml of the injection).
(E)-5-(2-bromovinyl)-uracil (250 mg) and gum arabic (2.25 g) were mixed together, and the mixture was kneaded while adding a slight amount of water, to prepare 45 ml of a suspension (containing 83.3 mg of (E)-5-(2-bromovinyl)-uracil per 15 ml of the suspension).
Fasted beagle dogs were used as experimental animals. […] The concentration of ^13C-labeled carbon dioxide excreted in the collected expired air was measured using a GC-MS analyzer (ABCA-G, Europa Scientific). […]

[3] = target: T1, dihydropyrimidine dehydrogenase (DPD); assay: 13CO2 excretion in expired air after oral administration of 2-13C-labeled uracil preparation (Example 2); assay type: in vivo; settings: FIG. 3
Description: A preparation for determining the pyrimidine metabolic capacity in an oral form was prepared using the same 2-^13C-labeled uracil as used in Example 1 as an active ingredient, and tested for usefulness for measuring pyrimidine metabolic capacity.
2-^13C-labeled uracil (Cambridge Isotope Laboratory) (300 mg) was dissolved in 24 ml of 0.1N NaOH/saline solution (measured out from 200 ml of 0.1N NaOH/saline solution prepared by diluting 2 ml of 10N sodium hydroxide solution with physiological saline). Then, water was added to give 60 ml of a preparation for determining pyrimidine metabolic capacity in the form of an oral solution (containing 50 mg of 2-^13C-labeled uracil per 10 ml of the oral solution).
Fasted beagle dogs were used as experimental animals. In Group 1 (n=3), the preparation prepared above in (1) was orally administered (50 mg/10 ml/body) (test group). […] The concentration of ^13C-labeled carbon dioxide excreted in the expired air was measured in the same manner as in Example 1, using a GC-MS analyzer (ABCA-G, Europa Scientific). […]

[4] = system: pyrimidine metabolic pathway; settings: administered to the body; Cancer (Phila), 68, 499-501, 1991; cited from earlier work
[5] = system: dihydropyrimidine dehydrogenase (DPD); settings: Cancer Research 46, 1094-1101, 1986; cited from earlier work

## O=c1cc[nH][13c](=O)[nH]1 [2-^13C-labeled uracil]
[1]
  excretion kinetics in the expired air (AUC and Cmax versus dose): has linearity
[2]; test group, fasted beagle dogs, intravenous injection 50 mg/body, expired air 0-240 min
  metabolism and excretion in the expired air as 13CO2: metabolized and excreted in the expired air as ^13CO2
[3]; test group, fasted beagle dogs, oral 50 mg/10 ml/body, expired air 0-240 min
  metabolism and excretion in the expired air as 13CO2: metabolized and excreted in the expired air as ^13CO2

## O=c1[nH]cc(F)c(=O)[nH]1 [5-FU, 5-fluorouracil]
[4]
  share of administered 5-FU degraded in the pyrimidine metabolic pathway: about 80%

## O=c1[nH]cc(/C=C/Br)c(=O)[nH]1 [(E)-5-(2-bromovinyl)-uracil]
[2]; DPD inhibitor 83.3 mg/body orally 1 hour before intravenous 2-13C-labeled uracil 50 mg/body, compared with test group
  excretion of 13CO2 in the expired air after DPD inhibitor pretreatment: markedly lower excretion
[5]
  DPD inhibitor activity: known as a dihydropyrimidine dehydrogenase (DPD) inhibitor
[3]; DPD inhibitor 83.3 mg/15 ml/body orally 1 hour before oral 2-13C-labeled uracil 50 mg/10 ml/body, compared with test group
  excretion of 13CO2 in the expired air after DPD inhibitor pretreatment: markedly reduced
